Test results published in patent US20250204535A1, “Rodenticide” (priority 2022, published 2025).
Where no end group is shown, it is not given here.

Key:
Type in all cases: cell-based
[1] = tested on: Human IPSC-derived cardiomyocytes; assay: Screening synthetic peptides for human IPSC-derived cardiomyocyte toxicity (resazurin, 24 h); conditions: 10 μg/ml, toxicity control
Method: (§1) Human IPSC-derived cardiomyocytes were purchased from Axol Biosciences and cultured as via their standard methodology. Briefly, cells were recovered from liquid nitrogen storage when required and the cells transferred dropwise into 10 ml of pre-warmed (37° C.) plating media (cardiomyocyte maintenance media+10% FCS+10 μM ROCK inhibitor). Cells were centrifuged at 200×g for 5 mins at room temperature. The supernatant was aspirated from the cell pellet and the cell pellet gently resuspended in 1 ml plating media. Cells were counted using a haemocytometer and trypan blue staining. Cells were plated at a seeding density of 10-20,000 cells/well in fibronectin pre-coated 384 well plates. Cells were incubated at 37° C., 5% CO2 in a humidified incubator overnight before the plating media was removed the following day and replace with fresh maintenance media (No FCS, no ROCK inhibitor). Partial media changes were performed every 2-days until cells formed a single continuous sheet of spontaneously beating cardiomyocytes (7-10 day in culture).
(§2) Rat neonatal cardiomyocytes, Embryonic chick cardiomyocytes, human IPSC-derived cardiomyocytes and rat cardiac fibroblast were cultured. […] After 24 h Resazurin dye was added to each well at a final concentration of 160 μM and the change in fluorescence of the dye monitored and recorded over a 24 h time period.

[2] = tested on: Neonatal rat cardiomyocytes; assay: Screening purified venom fractions for alterations to cardiomyocyte beat rates; conditions: for Highest Achieved Fold Increases in Beat Rate: 1 h; for fold increases to beat rate: dose of 6 μg/ml
Method: Neonatal rat cardiomyocytes were isolated as via standard protocol and seeded at a density of 100,000 cells/96 well. Once myocyte cultures were beating spontaneously in uniform sheets, they were videoed well-by-well using a microscope camera to determine pre-dose beat rates/min. […] Cells were incubated in each fraction in a humidified incubator at 37° C., 5% CO2 for 1 h. After 1 h videos of the cells were re-recorded to obtain the post-dosing beat rate/minute. Fold changes in beat frequency were calculated for each dosed well pair.

[3] = tested on: Embryonic chick cardiomyocytes; assay: Screening synthetic peptides for embryonic chick cardiomyocyte toxicity (resazurin, 24 h); conditions: 10 μg/ml, toxicity control
Method: Hearts were collected from euthanised 12-13 day old embryonic chicks and transferred into filter sterilized ice-cold hanks balanced salt solution (HBSS) containing 2% Pen-strep. Hearts were washed in the HBSS to remove blood, any non-heart tissue removed and then cut into 1-3 mm pieces and placed in 40 ml filter sterilized, ice cold 0.05% trypsin/HBSS. The heart pieces in trypsin were place in a large ice bucket and incubated for 1 h on a rocker with gentle agitation to allow the tissue to digest.
All trypsin was aspirated from the tissue and discarded, and the tissue transferred evenly into 2 ml Eppendorf tubes. The tissue was then digested further using a 1 mg/ml Collagenase II/0.1% Trypsin/HBSS (filter sterilized) solution. For each digestion, 2 ml of enzyme buffer was added to all Eppendorf tubes and the tubes incubated in a 37° C. heating block for 3 mins with 400 rpm agitation. The supernatant from the first two digestions was discarded. After each of the following digestion steps, the tissue was gently triturated using a Pasteur pipette to release cells. […]
as §2

[4] = tested on: rat neonatal cardiomyocyte cells; conditions: 37, 60, 80, 100° C.; 6 μg/ml; rat cardiomyocytes; FIG. 4
Method: Thermal stability of the six lead fractions was investigated. Aliquots of each fraction were heated in a heat block to 37° C. (unheated), 60° C., 80° C. and 100° C. before being used to treat rat neonatal cardiomyocyte cells at a dose of 6 μg/ml. Cardiomyocyte toxicity was assessed after 24 hrs of dosing at each temperature against a similar aliquot of each fraction that had been unheated before dosing. After 24 h, 160 μM Resazurin dye was added to all cells and the change in cardiomyocyte cell viability/metabolism monitored every hour up to 5 h post dye addition. An additional measurement was recorded 24 hs after the dye had been added.

[5] = tested on: neonatal rat cardiac fibroblast cells; assay: Screening purified venom fractions for rat cardiac fibroblast toxicity (resazurin); conditions: neonatal rat cardiac fibroblasts
Method: Hearts were collected from euthanised 1-2-day old neonatal rat pups and transferred into filter sterilised ice-cold Hanks balanced salt solution (HBSS) containing 2% Pen-strep. Hearts were washed in the HBSS, any non-heart tissue removed and then cut into 1-3 mm pieces and placed in 40 ml filter sterilised, ice cold 0.1% trypsin/HBSS. The heart pieces in trypsin were place in a large ice bucket and incubated overnight at 4° C. on a rocker with gentle agitation to allow the tissue to digest.
The following day, all trypsin was aspirated from the tissue and the tissue transferred evenly into 2 ml Eppendorf tubes. The tissue was then digested further using a 37° C. 1 mg/ml collagenase/HBSS (filter sterilised) solution. For each collagenase digestion, 2 ml of enzyme buffer was added to all Eppendorf tubes and the tubes incubated in a 37° C. heating block for 2 mins with 400 rpm agitation. The supernatant from the first two digestions was discarded. After each of the following digestion steps, the tissue was gently triturated using a pipette to release cells. Once trituration was complete the supernatant was retained, added to a tube containing 10 ml cell culture media and stored on ice.
All cell containing supernatants were filtered through a 250 μm cell strainer to remove any potentially undigested tissue and myocytes separated from cardiac fibroblast by spinning the supernatant at 1800 g for 45 mins through a Percoll gradient. […]
Neonatal rat cardiomyocytes and cardiac fibroblasts were treated with purified venom fractions suspected of being cardiotoxins at doses of 12.5, 7.5, 6 μg/ml, with rat cardiomyocytes being treated at additional concentrations of 3.5, 2.5, 1 and 0.5 μg/ml for 2 hs in a humidified incubator at 37° C., 5% CO2. […] The change in fluorescence of the resazurin dye was monitored over a 5 h timeframe using a BMG Fluostar plate reader. Percent inhibition of both cell types in response to each fraction at each dose were calculated and plotted graphically.

[6] = tested on: Human IPSC-derived cardiomyocytes; assay: Screening synthetic peptides for alterations to human IPSC-derived cardiomyocyte beat rates; conditions: 2 h; dose not stated in the sentence (no increase at 0.1, 1 and 10 μg/ml)
Method: The baseline beat rate of neonatal rat and human IPSC-derived cardiomyocytes to be treated with the three synthetic fractions were determined by video microscopy of each well in triplicate using a microscope camera. Average beats/min were calculated from the triplicate readings of three separate wells (n=9). Aliquots of each peptide were taken to treat neonatal rat cardiomyocyte cells at doses of 100, 10, 1 and 0.1 μg/ml. Cells were returned to a humidified incubator at 37° C., 5% CO2 for 2 h. After 2 h the beat rate of the treated cardiomyocyte cells was reassessed using the same method used to obtain the pre-dosing beat data. This process was repeated 24 h after the addition of the synthetic peptides.

[7] = tested on: Human IPSC-derived cardiomyocytes; assay: Six lead fractions: toxicity to human IPSC-derived cardiomyocytes (resazurin); conditions: 3.5 μg/ml
Method: as §1
Once beating spontaneously, cells were treated with the six lead fractions diluted in maintenance media to final working concentrations of 7.5, 6, 3.5, 2.5 and 1 μg/ml. 30 μl of each fraction dilution was added to triplicate wells of cells and incubated for 2 h at 37° C., 5% CO2 in a humidified incubator. After 2 h, resazurin dye at a final working concentration of 160 μM were added to all wells and the change in fluorescence of the plate monitored over a 5 h timeframe using a BMG Labtech Fluostar plate reader. Percent toxicity was calculated from triplicate wells at each dose and plotted graphically.
Human IPSC derived cardiomyocytes were dosed in triplicate with a serial dilution of each of the six venom fractions (7.5, 6, 3.5, 2.5 and 1 μg/ml) for 2 hs at 37° C., 5% CO2 before resazurin dye was added and the change in colour and fluorescence monitored for the following 5 hrs. Percentage toxicity was calculated for each fraction at all doses and plotted graphically (FIG. 3).

| Substance | toxicity against human IPSC-derived cardiomyocytes [1] | Highest Achieved Fold Increases in Beat Rate ([2]; Dose 1 μg/ml) [fold] | fold increases to beat rate [2] | toxicity against embryonic chick cardiomyocytes [3] | thermal stability (change in cytotoxic activity after heating) [4] | doses showing cardiac fibroblast toxicity [5] [µg/mL] | increase to the beat rate of human cardiomyocytes over pre-dosing beat rate [6] [fold] | toxicity in human IPSC-derived cells compared to rodent cardiomyocytes [7] | Highest Achieved Fold Increases in Beat Rate ([2]; Dose 6 μg/ml) [fold] |
| --- | --- | --- | --- | --- | --- | --- | --- | --- | --- |
| N.nig_I19_R4 (LKCNKLIPIAYKTCPEGKNLCYKMMLASKKMVPVKRGCIDVCPKDSALVKYVCCSTDRCN) | ≈ 90% | 6.25 | greater than 5.5 fold | ≈ 90% | no significant changes in the activity | 12.5 | – | – | – |
| LKCNKLIPLAYKT [Synthetic peptide 2] | – | – | – | – | – | – | 1.5 | – | – |
| N.nka_I18_R4 (LKCNKLIPLAYKTCPAGKDLCYKMYMVSDKTVPVKRGCIDVCPKNSLLVKYECCNTDRCN) | ≈ 90% | – | greater than 7 fold | ≈ 90% | no significant changes in the activity | – | – | reduction in toxicity | 7.00 |
